# Test results published in paper PMC10610505, “Synthesis and Biological Evaluation of Some New 3-Aryl-2-thioxo-2,3-dihydroquinazolin-4(1H)-ones and 3-Aryl-2-(benzylthio)quinazolin-4(3H)-ones as Antioxidants; COX-2, LDHA, α-Glucosidase and α-Amylase Inhibitors; and Anti-Colon Carcinoma and Apoptosis-Inducing Agents” (Pharmaceuticals, 2023).
# Tested on: HCT-116 carcinoma cells
# Test: Cell cycle assay (PI flow cytometry), HCT-116
# Format: cell-based, human
# Details: 50 µg/mL, 48 h
# Experimental: In the current study, the cell cycle distribution of the treated HCT-116 and LoVo carcinoma cells with compounds 3a and 3f was assessed by labeling the cell’s DNA with PI stain in order to determine if the induction of apoptosis in carcinoma cells could be related to the cell cycle arrest (Figure 8A–F). The intensity of the PI stain is proportional to the cell’s DNA content (Figure 9). […] The ability of the tested compounds (3a and 3f) to block the cell cycle progression in LoVo and HCT-116 cells confirmed their anticancer potential against these colon carcinoma cell lines and could explain the mechanism of the observed cytotoxicity.
# Changes in cell cycle distribution induced by compounds 3a and 3f were analyzed using a flow cytometric analysis according to Nicoletti et al. 1991 [108] using a Propidium Iodide Flow Cytometry Kit for Cell Cycle Analysis (Abcam-UK). HCT-116 and LoVo carcinoma cells (5 × 10^4 cells/mL) were treated with DMSO as a negative control, and compounds 3a and 3f (50 µg/mL), for 48 h. After the centrifugation of the treated cells at 1800 rpm for 5 min, the pellet was washed twice with PBS. Then, the cells were fixed by mixing […] of 90% cold ethanol, and stained with propidium iodide (PI) for 1 h at 37 °C. […] The stained cells were analyzed for their DNA content using a BD FACSC flow cytometer.
row,SMILES,Cells in G1 phase (%DIP G1) [%]
1,"O=c1c2cc(Cl)ccc2[nH]c(=S)n1-c1ccc([N+](=O)[O-])cc1 [Compound 3f, 6-Chloro-3-(4-nitro-phenyl)-2-thioxo-2,3-dihydro-1H-quinazolin-4-one]",57.81
2,"O=c1c2cc(Cl)ccc2[nH]c(=S)n1-c1cccc(C(F)(F)F)c1 [Compound 3a, 6-Chloro-2-thioxo-3-(3-trifluoromethyl-phenyl)-2,3-dihydro-1H-quinazolin-4-one]",53.51
